Assay results published in the supplement of paper PMC8671470.
± gives the standard deviation of the averaged measurements.

Tests used:
Conditions in all cases: 72 h
[1] = tested on: ML-2
Outline: (§1)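 For the IC50, dose–response curves were fitted with a log-logistic model. The data came from fifteen myeloid leukaemia cell lines grown in RPMI 1640 at densities in the linear growth range and incubated in 384-well plates for 72 h at 37 °C under 5% CO2. Doses were five tenfold steps from 1 to 10,000 nM in duplicate, and luminescent ATP viability was normalised to vehicle and to a positive control at 10 µM before four-parameter fitting.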

[2] = tested on: K-562
Outline: as §1

[3] = tested on: THP-1
Outline: as §1

[4] = tested on: Mono-Mac-6
Outline: as §1

[5] = tested on: HEL
Outline: as §1

[6] = tested on: NOMO-1
Outline: as §1

[7] = tested on: HL-60
Outline: as §1

[8] = tested on: LAMA-84
Outline: as §1

[9] = tested on: KCL-22
Outline: as §1

[10] = tested on: KG-1
Outline: as §1

[11] = tested on: SHI-1
Outline: as §1

[12] = tested on: MOLM-13
Outline: as §1

[13] = tested on: MV4-11
Outline: as §1

[14] = tested on: KU-812
Outline: as §1

[15] = tested on: BV-173
Outline: as §1

[16] = tested on: HL-60; assay: cell viability (% survival relative to DMSO control); higher = less cytotoxic
Outline: (§2)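 For each screen, HL-60 cells in RPMI 1640 with 10% FBS carried either DMSO or 100 nM of one of three metabolic inhibitors while the full library was applied at five tenfold concentrations, 1–10,000 nM, in duplicate. Plates were 384-well and were kept 72 h at 37 °C, 5% CO2. Viability, measured by CellTiter-Glo, was normalised to wells with DMSO and with 10 μM proteasome inhibitor. Where area under the curve appears, it was fitted by four-parameter log-logistic models in drc and PharmacoGx.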

[17] = tested on: HL-60; assay: area under dose-response curve (viability, 1 nM-10 uM) (fraction (0-1)); higher = more sensitive
Outline: as §2

[18] = tested on: ML-2; assay: cell viability (% survival relative to DMSO control, bortezomib = 0%); higher = less cytotoxic
Outline: (§3)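 Percent survival figures are means of duplicate wells. They were obtained by CellTiter-Glo luminescence after 10 AML and 5 CML cell lines spent 72 h at 37 °C with 5% CO2 in 384-well plates with compounds at 1, 10, 100, 1000 or 10000 nM. Vehicle was set to 100% and a 10 µM positive control to 0%.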

[19] = tested on: K-562; assay: as above
Outline: as §3

[20] = tested on: Mono-Mac-6; assay: as above
Outline: as §3

[21] = tested on: HEL; assay: as above
Outline: as §3

[22] = tested on: HL-60; assay: as above
Outline: as §3

[23] = tested on: LAMA-84; assay: as above
Outline: as §3

[24] = tested on: KCL-22; assay: as above
Outline: as §3

[25] = tested on: KG-1; assay: as above
Outline: as §3

[26] = tested on: SHI-1; assay: as above
Outline: as §3

[27] = tested on: MV4-11; assay: as above
Outline: as §3

[28] = tested on: BV-173; assay: as above
Outline: as §3

O=C(Oc1ccc([N+](=O)[O-])cc1)N1CCC(C(O)(c2ccc3c(c2)OCO3)c2ccc3c(c2)OCO3)CC1 [JZL184]
Conditions	IC50 (cell viability) [µM]
[1]	> 10
[2]	> 10
[3]	> 10
[4]	> 10
[5]	> 10
[6]	> 10
[7]	> 10
[8]	> 10
[9]	> 10
[10]	> 10
[11]	> 10
[12]	> 10
[13]	> 10
[14]	> 10
[15]	> 10

cell viability [%], [16]
Conditions	0.001 µM	0.01 µM	0.1 µM	1 µM	10 µM
co-treatment: AZD3965 100 nM	110 ± 11	92.8 ± 12	104 ± 2.5	98.7 ± 2.8	105.1 ± 0.87
co-treatment: DMSO vehicle	100 ± 1.5	93.8 ± 6	100.9 ± 0.17	101 ± 2.3	97.3 ± 2.7
co-treatment: GSK2194069 100 nM	103 ± 3.2	99.6 ± 1	99.2 ± 8.9	101 ± 4.3	107 ± 13
co-treatment: pictilisib 100 nM	83.1 ± 35	89.4 ± 14	97.2 ± 3	95.5 ± 2.7	99 ± 11

Conditions	area under dose-response curve, co-treatment: AZD3965 100 nM	area under dose-response curve, co-treatment: DMSO vehicle	area under dose-response curve, co-treatment: GSK2194069 100 nM	area under dose-response curve, co-treatment: pictilisib 100 nM	cell viability, 1 nM [%]	cell viability, 10 nM [%]	cell viability, 100 nM [%]	cell viability, 1000 nM [%]	cell viability, 10000 nM [%]
[17]	< 0.0301	< 0.0301	< 0.0301	< 0.0301	–	–	–	–	–
[18]	–	–	–	–	102	112	114	104	98.9
[19]	–	–	–	–	92.8	110	106	87	95.7
[20]	–	–	–	–	90.2	111	104	103	92.3
[21]	–	–	–	–	97.3	114	120	90.6	97.4
[22]	–	–	–	–	96.9	98.8	105	103	101
[23]	–	–	–	–	97	102	95.9	89.7	96.6
[24]	–	–	–	–	90.8	108	112	105	92.3
[25]	–	–	–	–	101	107	100	104	94
[26]	–	–	–	–	110	97.9	129	103	90.7
[27]	–	–	–	–	94.9	95.7	98.9	94.5	88.5
[28]	–	–	–	–	95.2	96.5	90.7	92.9	69.4

O=C1N[C@@H]2[C@@H](O)[C@@H](O)[C@H](O)[C@@H](CO)N2C1=O [Kifunensine]
Conditions	IC50 (cell viability) [µM]
[1]	> 10
[2]	> 10
[3]	> 10
[4]	> 10
[5]	> 10
[6]	> 10
[7]	> 10
[8]	> 10
[9]	> 10
[10]	> 10
[11]	> 10
[12]	> 10
[13]	> 10
[14]	> 10
[15]	> 10

cell viability [%], [16]
Conditions	0.001 µM	0.01 µM	0.1 µM	1 µM	10 µM
co-treatment: AZD3965 100 nM	93.1 ± 5.7	81.8 ± 28	101 ± 2.2	99.3 ± 1.2	108 ± 4.8
co-treatment: DMSO vehicle	96.82 ± 0.8	99.24 ± 0.24	103 ± 3.2	101 ± 3.6	108 ± 1.7
co-treatment: GSK2194069 100 nM	95.7 ± 6.9	79.8 ± 27	101 ± 1.8	91.23 ± 0.73	91.9 ± 9.2
co-treatment: pictilisib 100 nM	85.7 ± 3.2	112 ± 7.8	95.7 ± 2.5	104 ± 2.7	111.3 ± 0.3

Conditions	area under dose-response curve, co-treatment: AZD3965 100 nM	area under dose-response curve, co-treatment: DMSO vehicle	area under dose-response curve, co-treatment: GSK2194069 100 nM	area under dose-response curve, co-treatment: pictilisib 100 nM	cell viability, 1 nM [%]	cell viability, 10 nM [%]	cell viability, 100 nM [%]	cell viability, 1000 nM [%]	cell viability, 10000 nM [%]
[17]	< 0.0301	< 0.0301	< 0.0301	< 0.0301	–	–	–	–	–
[18]	–	–	–	–	96.5	95.4	116	95.7	90.9
[19]	–	–	–	–	93.2	102	99.3	87.6	107
[20]	–	–	–	–	91.8	102	107	88.7	92.4
[21]	–	–	–	–	99.6	105	125	87.8	109
[22]	–	–	–	–	102	90.6	120	120	144
[23]	–	–	–	–	103	98.6	114	84.4	107
[24]	–	–	–	–	107	104	102	89	101
[25]	–	–	–	–	96.1	93.2	112	88.6	85.6
[26]	–	–	–	–	96.9	99.9	105	107	136
[27]	–	–	–	–	96.4	96.3	103	82.9	72.1
[28]	–	–	–	–	95	106	114	86.7	90.5

CC(C)(CCCCCCCCCCC(C)(C)CC(=O)O)CC(=O)O [MEDICA 16]
Conditions	IC50 (cell viability) [µM]
[1]	> 10
[2]	> 10
[3]	> 10
[4]	> 10
[5]	> 10
[6]	> 10
[7]	> 10
[8]	> 10
[9]	> 10
[10]	> 10
[11]	> 10
[12]	> 10
[13]	> 10
[14]	> 10
[15]	> 10

cell viability [%], [16]
Conditions	0.001 µM	0.01 µM	0.1 µM	1 µM	10 µM
co-treatment: AZD3965 100 nM	100 ± 4.3	104 ± 9.4	105 ± 13	101 ± 8.2	99.5 ± 3.1
co-treatment: DMSO vehicle	98.9 ± 3.6	98.3 ± 3.4	103 ± 3.3	101 ± 1.5	98 ± 1.4
co-treatment: GSK2194069 100 nM	101.1 ± 0.91	87.2 ± 19	99 ± 5.8	102 ± 2.8	93.201 ± 0.073
co-treatment: pictilisib 100 nM	97.8 ± 6.5	100 ± 6.5	93.9 ± 4	90 ± 2.5	99.96 ± 0.98

Conditions	area under dose-response curve, co-treatment: AZD3965 100 nM	area under dose-response curve, co-treatment: DMSO vehicle	area under dose-response curve, co-treatment: GSK2194069 100 nM	area under dose-response curve, co-treatment: pictilisib 100 nM	cell viability, 1 nM [%]	cell viability, 10 nM [%]	cell viability, 100 nM [%]	cell viability, 1000 nM [%]	cell viability, 10000 nM [%]
[17]	< 0.0301	< 0.0301	< 0.0301	< 0.0301	–	–	–	–	–
[18]	–	–	–	–	104	99.4	96.3	101	91.5
[19]	–	–	–	–	114	108	103	96.8	117
[20]	–	–	–	–	99.8	114	102	102	111
[21]	–	–	–	–	116	108	95.2	110	119
[22]	–	–	–	–	109	114	98	116	108
[23]	–	–	–	–	110	85.8	99.3	98.6	97.8
[24]	–	–	–	–	119	97.4	107	107	98.7
[25]	–	–	–	–	91.7	95.8	98.6	107	99.8
[26]	–	–	–	–	121	104	102	98.2	90.7
[27]	–	–	–	–	124	105	94	102	116
[28]	–	–	–	–	105	89.4	98.5	94.2	106
